Experiments:
[1] = tested on: HT-1080; test: Modulatory profiling: Alamar Blue viability, lethal compound cotreated with death modulator (EC50, AUC); assay type: cell-based; parameters: AUC, modulator HT.3MA / AUC, modulator HT.ALLN / AUC HT.ATA / AUC HT.ActD / AUC HT.BHA / AUC HT.BHT / AUC HT.BocD / AUC HT.CHX / AUC HT.Co2+ / AUC HT.DPQ / AUC HT.EGTA / AUC HT.Lmim / AUC HT.NAD+ / AUC HT.Nec-1 / AUC HT.SP600125 / AUC HT.TLCK / AUC HT.U0126: unit not given beside the values; conditions: for AUC HT.ATA: HT-1080, modulator ATA; for AUC HT.ActD: HT-1080, modulator ActD; for AUC HT.BHA: HT-1080, modulator BHA; for AUC HT.BHT: HT-1080, modulator BHT; for AUC HT.BocD: HT-1080, modulator BocD; for AUC HT.CHX: HT-1080, modulator CHX; for AUC HT.Co2+: HT-1080, modulator Co2+; for AUC HT.CspA: HT-1080, modulator CspA; for AUC HT.DPQ: HT-1080, modulator DPQ; for AUC HT.EGTA: HT-1080, modulator EGTA; for AUC HT.Gd3+: HT-1080, modulator Gd3+; for AUC HT.LNAME: HT-1080, modulator LNAME; for AUC HT.Lmim: HT-1080, modulator Lmim; for AUC HT.NAD+: HT-1080, modulator NAD+; for AUC HT.NMMA: HT-1080, modulator NMMA; for HT.atoc (AUC) / HT.bCarotene (AUC) / HT.deferox (AUC) / HT.digoxin (AUC) / HT.trolox (AUC) / HT.zVAD (AUC): HT-1080; for HT.atoc (AUC): modulator atoc; for HT.bCarotene (AUC): modulator bCarotene; for HT.deferox (AUC): modulator deferox; for HT.digoxin (AUC): modulator digoxin; for HT.trolox (AUC): modulator trolox; for HT.zVAD (AUC): modulator zVAD; as to AUC HT.BHA: reference of the scale not given here; as to AUC HT.EGTA: reference of the scale not given here
[2] = tested on: BJeLR; test: as above; assay type: cell-based, human; parameters: AUC, modulator BJ.Gd3+ / AUC, modulator BJ.LNAME / AUC, modulator BJ.Lmin / AUC, modulator BJ.3MA / AUC, modulator BJ.ALLN / AUC, modulator BJ.Boc D / AUC, modulator BJ.CHX / AUC, modulator BJ.Co2+ / AUC, modulator BJ.Nec-1 / AUC, modulator BJ.Pepstatin / AUC, modulator BJ.TLCK / AUC, modulator BJ.atoc / AUC, modulator BJ.trolox / AUC, modulator BJ.zVAD: unit not given beside the values; conditions: BJeLR cells, modulatory profile value (AUC); for AUC, modulator BJ.3MA: lethal compound cotreated with modulator 3MA; for AUC, modulator BJ.ALLN: lethal compound cotreated with modulator ALLN; for AUC, modulator BJ.Boc D: lethal compound cotreated with modulator Boc D; for AUC, modulator BJ.CHX: lethal compound cotreated with modulator CHX; for AUC, modulator BJ.Co2+: lethal compound cotreated with modulator Co2+; for AUC, modulator BJ.DPQ: lethal compound cotreated with modulator DPQ; for AUC, modulator BJ.Gd3+: lethal compound cotreated with modulator Gd3+; for AUC, modulator BJ.LNAME: lethal compound cotreated with modulator LNAME; for AUC, modulator BJ.Lmin/NAD+: lethal compound cotreated with modulator Lmin/NAD+; for AUC, modulator BJ.Lmin: lethal compound cotreated with modulator Lmin; for AUC, modulator BJ.NAD+: lethal compound cotreated with modulator NAD+; for AUC, modulator BJ.NMMA: lethal compound cotreated with modulator NMMA; for AUC, modulator BJ.Nec-1: lethal compound cotreated with modulator Nec-1; for AUC, modulator BJ.Pepstatin: lethal compound cotreated with modulator Pepstatin; for AUC, modulator BJ.TLCK: lethal compound cotreated with modulator TLCK; as to AUC, modulator BJ.3MA: reference of the scale not given here; as to AUC, modulator BJ.ALLN: reference of the scale not given here; as to AUC, modulator BJ.Boc D: reference of the scale not given here; as to AUC, modulator BJ.CHX: reference of the scale not given here; as to AUC, modulator BJ.Co2+: reference of the scale not given here; as to AUC, modulator BJ.DPQ: reference of the scale not given here; as to AUC, modulator BJ.Gd3+: reference of the scale not given here; as to AUC, modulator BJ.LNAME: reference of the scale not given here; as to AUC, modulator BJ.NAD+: reference of the scale not given here; as to AUC, modulator BJ.NMMA: reference of the scale not given here; as to AUC, modulator BJ.Nec-1: reference of the scale not given here; as to AUC, modulator BJ.Pepstatin: reference of the scale not given here; as to AUC, modulator BJ.TLCK: reference of the scale not given here

SMILES | AUC HT.ATA [1] | AUC HT.ActD [1] | AUC HT.BHA [1] | AUC HT.BHT [1] | AUC HT.BocD [1] | AUC HT.CHX [1] | AUC HT.Co2+ [1] | AUC HT.CspA [1] | AUC HT.DPQ [1] | AUC HT.EGTA [1] | AUC HT.Gd3+ [1] | AUC HT.LNAME [1] | AUC HT.Lmim [1] | AUC HT.NAD+ [1] | AUC HT.NMMA [1] | HT.atoc (AUC) [1] | HT.bCarotene (AUC) [1] | HT.deferox (AUC) [1] | HT.digoxin (AUC) [1] | HT.trolox (AUC) [1] | also measured
[O-][N+]1=c2ccc(Nc3ccccc3)cc2=NC12CCCCC2 [CIL66] | 0.02652 | −0.03277 | −0.02085 | −0.1542 | −0.05788 | 0.08144 | −0.06034 | −0.05469 | −0.01105 | 0.03093 | −0.01757 | 0.004035 | 0.01652 | −0.01106 | −0.01421 | 0.05045 | 0.03186 | 0.1299 | −0.05456 | −0.03334 | HT.zVAD (AUC) [1]: 0.01629; AUC, modulator BJ.3MA [2]: 0.04168; AUC, modulator BJ.ALLN [2]: 0.08747; AUC, modulator BJ.Boc D [2]: −0.03146; AUC, modulator BJ.CHX [2]: 0.08369; AUC, modulator BJ.Co2+ [2]: −0.03141; AUC, modulator BJ.DPQ [2]: −0.007284; AUC, modulator BJ.Gd3+ [2]: −0.003838; AUC, modulator BJ.LNAME [2]: 0.02705; AUC, modulator BJ.Lmin/NAD+ [2]: 0.06444; AUC, modulator BJ.Lmin [2]: −0.05195; AUC, modulator BJ.NAD+ [2]: −0.0264; AUC, modulator BJ.NMMA [2]: −0.02558; AUC, modulator BJ.Nec-1 [2]: 0.03694; AUC, modulator BJ.Pepstatin [2]: 0.04469; AUC, modulator BJ.TLCK [2]: −0.07935
O=S1(=O)Nc2c(ccc3cccnc23)-c2ccccc21 [CIL67] | 0.08909 | 0.06498 | −0.03558 | −0.1041 | −0.02378 | 0.1458 | 0.03257 | 0.01638 | −0.01092 | 0.1234 | −0.01945 | −0.007515 | 0.01912 | −0.01795 | −0.01349 | 0.05006 | 0.04657 | 0.1176 | −0.02175 | −0.05687 | HT.zVAD (AUC) [1]: 0.004996; AUC, modulator BJ.3MA [2]: 0.02312; AUC, modulator BJ.ALLN [2]: 0.02149; AUC, modulator BJ.Boc D [2]: 0.00578; AUC, modulator BJ.CHX [2]: 0.3083; AUC, modulator BJ.Co2+ [2]: 0.03708; AUC, modulator BJ.DPQ [2]: −0.005089; AUC, modulator BJ.Gd3+ [2]: 0.0143; AUC, modulator BJ.LNAME [2]: 0.01177; AUC, modulator BJ.Lmin/NAD+ [2]: 0.1599; AUC, modulator BJ.Lmin [2]: −0.08787; AUC, modulator BJ.NAD+ [2]: −0.07272; AUC, modulator BJ.NMMA [2]: −0.01601; AUC, modulator BJ.Nec-1 [2]: −0.02018; AUC, modulator BJ.Pepstatin [2]: 0.08703; AUC, modulator BJ.TLCK [2]: 0.06141
COC(=O)c1[nH]c2ccc(Br)cc2c1NC(=O)CN1CCN(C2CCCCC2)CC1 [CIL71] | 0.03481 | 0.0007018 | −0.05622 | −0.05839 | 0.01089 | 0.0761 | 0.02342 | −0.03233 | −0.003505 | −0.02298 | −0.01552 | 0.02366 | −0.002609 | 0.01546 | −0.0007859 | 0.03733 | −0.01281 | −0.003654 | −0.01046 | −0.01311 | HT.zVAD (AUC) [1]: 0.01756; AUC, modulator BJ.3MA [2]: 0.01151; AUC, modulator BJ.ALLN [2]: −0.05589; AUC, modulator BJ.Boc D [2]: 0.0152; AUC, modulator BJ.CHX [2]: −0.06352; AUC, modulator BJ.Co2+ [2]: 0.02676; AUC, modulator BJ.DPQ [2]: 0.03052; AUC, modulator BJ.Gd3+ [2]: 0.01394; AUC, modulator BJ.LNAME [2]: 0.001204; AUC, modulator BJ.Lmin/NAD+ [2]: 0.001502; AUC, modulator BJ.Lmin [2]: −0.02138; AUC, modulator BJ.NAD+ [2]: −0.03656; AUC, modulator BJ.NMMA [2]: −0.000118; AUC, modulator BJ.Nec-1 [2]: −0.02956; AUC, modulator BJ.Pepstatin [2]: −0.01112; AUC, modulator BJ.TLCK [2]: 0.01514
COc1ccc(C(=O)C(CN2CCCC2)c2ccccc2)cc1 (stereo not drawn) [CIL72] | 0.05533 | 0.02924 | −0.04013 | −0.1002 | −0.02415 | 0.1147 | 0.1163 | −0.01912 | −0.03157 | 0.009608 | −9.532E−05 | 0.01226 | −0.001821 | 0.004195 | −0.004443 | −0.02111 | −0.01233 | 0.1972 | −0.01413 | −0.03591 | HT.zVAD (AUC) [1]: 0.05314; AUC, modulator BJ.3MA [2]: 0.01714; AUC, modulator BJ.ALLN [2]: 0.00459; AUC, modulator BJ.Boc D [2]: 0.02672; AUC, modulator BJ.CHX [2]: 0.2585; AUC, modulator BJ.Co2+ [2]: 0.1176; AUC, modulator BJ.DPQ [2]: −0.01087; AUC, modulator BJ.Gd3+ [2]: 0.03013; AUC, modulator BJ.LNAME [2]: 0.001053; AUC, modulator BJ.Lmin/NAD+ [2]: 0.07102; AUC, modulator BJ.Lmin [2]: 0.004844; AUC, modulator BJ.NAD+ [2]: −0.0366; AUC, modulator BJ.NMMA [2]: 0.01422; AUC, modulator BJ.Nec-1 [2]: −0.02464; AUC, modulator BJ.Pepstatin [2]: 0.01988; AUC, modulator BJ.TLCK [2]: 0.03641

— patent US10947188B2, “Small molecule ferroptosis inducers” (THE TRUSTEES OF COLUMBIA UNIVERSITY IN THE CITY OF NEW YORK, priority 2016, dated 2021)
